Source: publication PMC12195740, “Discovery of Novel Imidazothiazole-Based Hydroxamic Acid Derivatives as Potent Indoleamine 2,3-Dioxygenase 1 and Histone Deacetylase 6 Dual Inhibitors” (Molecules, 2025)
Blank lines part the entries; values can stand above or below the compound they belong to.

Legend:
rhIDO1 = target: T1, rhIDO1 (Homo sapiens, UniProt P14902); experiment: IDO1 inhibition assay; type: biochemical; conditions: means ± S.D. of three independent experiments
T1 construct: purchased
Procedure: Section S1. Biological assays […]
Section S 1.2 IDO1 inhibition assays
IDO1 inhibition assays were carried out according to the manufacturers’ procedures, as described previously. The standard assay mixture (100 μL) contained 50 mM of potassium phosphate buffer (pH = 6.5), 10 mM ascorbate, 10 μM methylene blue, 100 μg/mL catalase, 1 mM L-tryptophan and 10 μg/mL of rhIDO1. The plate was incubated at 37 °C in a dark environment, and reactions were terminated after 60 min by the addition of 50 μL of fluorogenic developer solution and further incubated at 45 °C in dark for 3 h. Then, the plate was allowed to cool to room temperature for at least 1 h. After centrifugation at 1500g for 5 min at 20 °C, the fluorescence […]
M1000 Pro, Tecan US, Morrisville, NC) in an end-point mode. […]

[1] = target: T2, HDAC6 human recombinant enzyme (Homo sapiens, UniProt Q9UBN7); experiment: HDAC6 enzyme inhibitory activity assay; type: biochemical; conditions: read-out: HDAC6 Inhibition Rate at 1 μM
T2 sequence (Q9UBN7 1-1215): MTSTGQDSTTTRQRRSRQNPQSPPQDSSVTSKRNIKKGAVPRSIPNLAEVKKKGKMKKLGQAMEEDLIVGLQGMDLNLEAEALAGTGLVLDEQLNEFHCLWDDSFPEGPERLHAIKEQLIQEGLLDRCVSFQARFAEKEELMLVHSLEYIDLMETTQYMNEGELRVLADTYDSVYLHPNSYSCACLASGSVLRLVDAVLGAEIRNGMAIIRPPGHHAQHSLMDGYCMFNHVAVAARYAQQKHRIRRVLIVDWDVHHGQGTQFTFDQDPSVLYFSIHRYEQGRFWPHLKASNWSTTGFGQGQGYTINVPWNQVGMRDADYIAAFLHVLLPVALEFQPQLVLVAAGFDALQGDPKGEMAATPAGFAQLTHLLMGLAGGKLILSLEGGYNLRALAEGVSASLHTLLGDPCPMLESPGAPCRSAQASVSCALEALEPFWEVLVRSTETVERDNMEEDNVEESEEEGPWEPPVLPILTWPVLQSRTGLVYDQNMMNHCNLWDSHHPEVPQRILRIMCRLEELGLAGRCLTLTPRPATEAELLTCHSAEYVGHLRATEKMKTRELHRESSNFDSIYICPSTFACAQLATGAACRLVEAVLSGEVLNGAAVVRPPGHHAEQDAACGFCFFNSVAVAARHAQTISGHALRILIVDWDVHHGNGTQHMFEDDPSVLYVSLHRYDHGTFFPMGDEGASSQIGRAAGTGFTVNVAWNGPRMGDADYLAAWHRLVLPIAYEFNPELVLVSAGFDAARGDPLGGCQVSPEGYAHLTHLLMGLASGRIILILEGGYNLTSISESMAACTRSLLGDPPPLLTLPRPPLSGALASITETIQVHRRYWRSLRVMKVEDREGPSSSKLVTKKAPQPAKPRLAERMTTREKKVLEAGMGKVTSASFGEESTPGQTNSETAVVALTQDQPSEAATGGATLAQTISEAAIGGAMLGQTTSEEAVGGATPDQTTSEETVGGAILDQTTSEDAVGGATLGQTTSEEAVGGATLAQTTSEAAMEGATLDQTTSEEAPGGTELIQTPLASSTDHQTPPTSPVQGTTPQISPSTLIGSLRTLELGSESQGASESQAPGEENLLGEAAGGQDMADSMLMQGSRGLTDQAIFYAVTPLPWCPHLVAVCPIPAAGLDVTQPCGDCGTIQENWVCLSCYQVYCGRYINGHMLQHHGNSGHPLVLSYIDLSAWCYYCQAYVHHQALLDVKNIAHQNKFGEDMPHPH
Procedure: Section S1. Biological assays
Section S 1.1. HDAC6 enzyme inhibitory activity assay
Preparation of Master Mix. Trichostatin A in DMSO, Fluorogenic HDAC substrate 3, and HDAC6 human recombinant enzyme were diluted to 20 μM, 200 μM, and 7 ng/uL, respectively, using HDAC Assay Buffer.BSA was dissolved in 1 mL of distilled water to make a BSA solution at a concentration of 1 mg/mL. A certain amount of Fluorogenic HDAC substrate 3, BSA and HDAC Assay Buffer were mixed well to make a master mix, and 40 μL of the master mix was added to each well of a 96-well plate. In the drug administration group, 5 μL of Trichostatin A in DMSO and HDAC6 human recombinant enzyme were added to each well. 5 μL of HDAC Assay Buffer and HDAC6 human recombinant enzyme were added to each well of the blank group, and incubated for 30 min at 37 °C. Finally, 50 μL of undiluted HDAC substrate 3, BSA and HDAC Assay Buffer were added to each well. 50 μL of 2x HDAC Developer was added to each well and incubated at room temperature for 15 min. The samples were read in an enzyme marker with an excitation wavelength in the range of 350-380 nm and an emission light in the range of 440-460 nm.
The values of fluorescence intensities were read and the inhibition rate and IC50 were calculated. […]

SW480 cells = experiment: Cell viability (MTT) assay, SW480; conditions: Homo sapiens, SW480, 48 h, read-out: Antiproliferative IC50, SW480
Procedure: Section S 1.3 Cell viability assays
(§1) Cell Bank at the Chinese Academy of Sciences.
(§2) DMEM and FBS were obtained from Gibco-Thermo (BRL Co. Ltd., USA).
(§3) another 48 h. The cells were stained with 10 μl of MTT at incubator for approximately 4 h. The medium was discarded and replaced by 100 mL DMSO. The O.D. value was read at 570/630 nm with a spectrophotometer.

MCF-7 cells = experiment: Cell viability (MTT) assay, MCF-7; conditions: Homo sapiens, MCF7, 48 h, read-out: Antiproliferative IC50, MCF-7
Procedure: Section S 1.3 Cell viability assays
as §1, §2, §3

HCT-116 cells = experiment: Cell viability (MTT) assay, HCT-116; conditions: Homo sapiens, HCT-116, 48 h, read-out: Antiproliferative IC50, HCT-116
Procedure: Section S 1.3 Cell viability assays
as §1, §2, §3

MDA-MB-231 cells = experiment: Cell viability (MTT) assay, MDA-MB-231; conditions: Homo sapiens, MDA-MB-231, 48 h, read-out: Antiproliferative IC50, MDA-MB-231
Procedure: Section S 1.3 Cell viability assays
as §1, §2, §3

[2] = General toxicity in CT26 tumor-bearing BALB/c mice (body weight, H&E of organs); type: in vivo; conditions: 150 mg/kg ip every 3 days for 21 days, versus vehicle group
Procedure: After that, fixed cells were washed with PBS. Then, cells were isolated by centrifugation and stained with propidium iodide (KeyGEN BioTECH, China) for 30 min. The samples were measured using flow cytometry and analyzed by Flowjo software.
Section S 1.6 Western blot assay […]
earlier were obtained by lysing the cells in ice-cold RIPA buffer with protease and phosphatase inhibitor and stored at -20°C for future use. The protein concentrations were quantified by the Bradford method (Bio-Rad) using a Multimode Varioscan instrument (Thermo Fischer Scientific). […]
and transferred to a polyvinylidene difluoride (PVDF) membrane (Amersham Biosciences). After the membrane was blocked at room temperature for 2 h in blocking solution, primary antibody was added and incubated at 4°C overnight. Ac-α-tubulin, Ac-histone H3 and GAPDH antibodies were purchased from Imgenex, USA. After three TBST washes, the membrane was incubated with corresponding horseradish peroxidase-labeled secondary antibody (1:2,000) (Santa Cruz) at room temperature for 1 h. Membranes were washed with TBST three times for 15 min and the protein bands were detected with chemiluminescence reagent (Thermo Fischer Scientific). The X-ray films were developed using developer and fixed with fixer solution.
Section S 1.7 In vivo antitumor efficacy […]
line CT-26 in BALB/c mice as described previously. Five-week-old male BALB/c mice were purchased from the Shanghai Ling Chang biotechnology company (China), and tumors were induced through subcutaneous injection of 1 × 10^7 cells in 100 µL of sterile PBS into the dorsal region. The animals were divided into four groups, starting on the second day. When the tumors reached a volume of 50−100 mm3 in all mice, the first group was administered intraperitoneally with an equivalent volume of 5% dextrose as the vehicle control. The second group was treated with […]
treated with complex 10e at doses of 150 mg/kg body weight once every 3 days for 3 weeks, respectively. All compounds were dissolved in vehicle. Tumor volumes and body weights were […]

T1 sequence (P14902 whole entry): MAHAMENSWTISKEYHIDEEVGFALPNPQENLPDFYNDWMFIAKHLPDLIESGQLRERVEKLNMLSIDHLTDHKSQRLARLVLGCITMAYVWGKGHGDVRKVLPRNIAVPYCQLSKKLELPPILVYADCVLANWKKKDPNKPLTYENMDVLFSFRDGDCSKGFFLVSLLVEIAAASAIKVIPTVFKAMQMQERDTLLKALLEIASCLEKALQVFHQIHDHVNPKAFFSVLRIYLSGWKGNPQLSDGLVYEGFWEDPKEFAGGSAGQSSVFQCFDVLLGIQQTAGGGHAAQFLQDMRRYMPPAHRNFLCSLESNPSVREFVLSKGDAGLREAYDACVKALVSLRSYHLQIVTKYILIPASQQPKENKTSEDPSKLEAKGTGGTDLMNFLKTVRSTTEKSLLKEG

SMILES: Cc1ccc(-c2csc3ncc(C(=O)Nc4ccc(NCCCC(=O)NO)cc4)n23)cc1 [Compound 10h, N-{4-[(4-(hydroxyamino)-4-oxobutyl)amino]phenyl}-3-(p-tolyl)imidazo[2,1-b]thiazole-5-carboxamide]
- IC50 (rhIDO1): 1780 ± 470 nM
- inhibition at 1 µM [1]: 33.7%

SMILES: O=C(CCCCCCC(=O)Nc1ccccc1)NO [SAHA, reference compound]
- inhibition at 1 µM [1]: 91.7%
- influence on body weight of the mice [2]: no obvious influence

SMILES: O=C(CCNc1ccc(NC(=O)c2cnc3scc(-c4ccc(Br)cc4)n23)cc1)NO [Compound 10a, 3-(4-Bromophenyl)-N-{4-[(3-(hydroxyamino)-3-oxopropyl)amino]phenyl}imidazo[2,1-b]thiazole-5-carboxamide]
- IC50 (rhIDO1): 1870 ± 60 nM
- inhibition at 1 µM [1]: 22.4%

SMILES: Cc1ccc(-c2csc3ncc(C(=O)NCc4ccc(C(=O)NO)cc4)n23)cc1 [Compound 7b, N-[4-(hydroxycarbamoyl)benzyl]-3-(p-tolyl)imidazo[2,1-b]thiazole-5-carboxamide]
- IC50 (rhIDO1): 960 ± 130 nM
- inhibition at 1 µM [1]: 48%

SMILES: Cc1ccc(-c2csc3ncc(C(=O)Nc4ccc(NCCC(=O)NO)cc4)n23)cc1 [Compound 10g, N-{4-[(3-(hydroxyamino)-3-oxopropyl)amino]phenyl}-3-(p-tolyl)imidazo[2,1-b]thiazole-5-carboxamide]
- IC50 (rhIDO1): 2070 ± 290 nM
- inhibition at 1 µM [1]: 31.2%

SMILES: NS(=O)(=O)NCCNc1nonc1C(=NO)Nc1ccc(F)c(Br)c1 [Epacadostat, reference compound]
- IC50 (SW480 cells): > 80000 nM
- IC50 (MCF-7 cells): > 80000 nM
- IC50 (HCT-116 cells): > 80000 nM
- IC50 (MDA-MB-231 cells): > 80000 nM

SMILES: Cc1ccc(-c2csc3ncc(C(=O)Nc4ccc(NCC(=O)NO)cc4)n23)cc1 [Compound 10f, N-{4-[(2-(hydroxyamino)-2-oxoethyl)amino]phenyl}-3-(p-tolyl)imidazo[2,1-b]thiazole-5-carboxamide]
- IC50 (rhIDO1): 6160 ± 830 nM
- inhibition at 1 µM [1]: 28.8%

SMILES: O=C(CCCNc1ccc(NC(=O)c2cnc3scc(-c4ccc(Br)cc4)n23)cc1)NO [Compound 10b, 3-(4-Bromophenyl)-N-{4-[(4-(hydroxyamino)-4-oxobutyl)amino)phenyl}imidazo[2,1-b]thiazole-5-carboxamide]
- IC50 (rhIDO1): 1060 ± 20 nM
- inhibition at 1 µM [1]: 25.2%

The remaining compounds from weak to strong by IC50 (rhIDO1), led by results:

- IC50 (rhIDO1): 590 ± 110 nM
- inhibition at 1 µM [1]: 35.5%
SMILES: Cc1ccc(-c2csc3ncc(C(=O)Nc4ccc(NCCCCC(=O)NO)cc4)n23)cc1 [Compound 10i, N-{4-[(5-(hydroxyamino)-5-oxopentyl)amino]phenyl}-3-(p-tolyl)imidazo[2,1-b]thiazole-5-carboxamide]

- IC50 (rhIDO1): 380 ± 50 nM
- inhibition at 1 µM [1]: 40.2%
- IC50 (SW480 cells): > 80000 nM
- IC50 (MCF-7 cells): > 80000 nM
- IC50 (HCT-116 cells): > 80000 nM
- IC50 (MDA-MB-231 cells): > 80000 nM
SMILES: Cc1ccc(-c2csc3ncc(C(=O)Nc4ccc(NCCCCCC(=O)NO)cc4)n23)cc1 [Compound 10j, N-{4-[(6-(hydroxyamino)-6-oxohexyl)amino]phenyl}-3-(p-tolyl)imidazo[2,1-b]thiazole-5-carboxamide]

- IC50 (rhIDO1): 340 ± 90 nM
- inhibition at 1 µM [1]: 19.4%
SMILES: O=C(CCCCNc1ccc(NC(=O)c2cnc3scc(-c4ccc(Br)cc4)n23)cc1)NO [Compound 10c, 3-(4-Bromophenyl)-N-{4-[(5-(hydroxyamino)-5-oxopentyl)amino)phenyl}imidazo[2,1-b]thiazole-5-carboxamide]

- IC50 (rhIDO1): 120 ± 10 nM
- inhibition at 1 µM [1]: 46.2%
- IC50 (SW480 cells): > 80000 nM
- IC50 (MCF-7 cells): 52900 ± 6950 nM
- IC50 (HCT-116 cells): 24400 ± 4780 nM
- IC50 (MDA-MB-231 cells): > 80000 nM
SMILES: O=C(CCCCCNc1ccc(NC(=O)c2cnc3scc(-c4ccc(Br)cc4)n23)cc1)NO [Compound 10d]
